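Grown in 96-well plates, cells were treated for 48 hours with each compound at five concentrations. Insufficient inhibition: endpoint recorded as highest concentration tested. GI50 is the concentration that inhibits growth by half.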 Active and inactive are the calls of the source. No stated cut-off is given here; in the data, active = GI50 up to about 1.1 µM and inactive = higher.
Tests used:
Assay in all cases: NCI-60 cell line screen, 48 h
OVCAR-8 = tested on: OVCAR-8
PC-3 = tested on: PC-3
HOP-62 = tested on: HOP-62
SNB-75 = tested on: SNB-75
HL-60 = tested on: HL-60
SW-620 = tested on: SW-620
SF-268 = tested on: SF-268
OVCAR-4 = tested on: OVCAR-4
SF-539 = tested on: SF-539
MOLT-4 = tested on: MOLT-4
Hs-578T = tested on: Hs-578T
TK-10 = tested on: TK-10
SK-OV-3 = tested on: SK-OV-3
MDA-N = tested on: MDA-N
RPMI-8226 = tested on: RPMI-8226
SK-MEL-2 = tested on: SK-MEL-2
UO-31 = tested on: UO-31
NCI-H226 = tested on: NCI-H226
MCF7 = tested on: MCF7
K562 = tested on: K562

| SMILES | GI50 (OVCAR-8) | GI50 (PC-3) | GI50 (HOP-62) | GI50 (SNB-75) | GI50 (HL-60) | GI50 (SW-620) | GI50 (SF-268) | GI50 (OVCAR-4) | GI50 (SF-539) | GI50 (MOLT-4) | GI50 (Hs-578T) | GI50 (TK-10) | GI50 (SK-OV-3) | GI50 (MDA-N) | GI50 (RPMI-8226) | GI50 (SK-MEL-2) | GI50 (UO-31) | GI50 (NCI-H226) | GI50 (MCF7) | GI50 (K562) |
| --- | --- | --- | --- | --- | --- | --- | --- | --- | --- | --- | --- | --- | --- | --- | --- | --- | --- | --- | --- | --- |
| O=[N+]([O-])c1ccc(S(=O)(=O)N=Ic2ccccc2)cc1 | > 100 µM (inactive) | > 100 µM (inactive) | > 100 µM (inactive) | > 100 µM (inactive) | > 100 µM (inactive) | > 100 µM (inactive) | > 100 µM (inactive) | > 100 µM (inactive) | > 100 µM (inactive) | > 100 µM (inactive) | > 100 µM (inactive) | > 100 µM (inactive) | > 100 µM (inactive) | > 100 µM (inactive) | > 100 µM (inactive) | > 100 µM (inactive) | > 100 µM (inactive) | > 100 µM (inactive) | > 100 µM (inactive) | > 100 µM (inactive) |
| O=C1Nc2ccccc2/C1=C\c1c(Cl)n(-c2ccccc2)c2ccccc12 | 2.71 µM (inactive) | 3.78 µM (inactive) | 4.68 µM (inactive) | 1.73 µM (inactive) | 2.77 µM (inactive) | 2.47 µM (inactive) | 0.832 µM (active) | 5.02 µM (inactive) | 1.87 µM (inactive) | 4.82 µM (inactive) | 0.851 µM (active) | 3.95 µM (inactive) | 4.07 µM (inactive) | 1.14 µM (inactive) | 4.92 µM (inactive) | 8.69 µM (inactive) | 2.4 µM (inactive) | 1.7 µM (inactive) | 3.44 µM (inactive) | 2.48 µM (inactive) |
| NCC(O)CNC(=O)c1ccc(-c2ccc(-c3ccc(C(=O)NCC(O)CN)cc3)o2)cc1 (stereo not given) | 29.6 µM (inactive) | 21.2 µM (inactive) | 25.3 µM (inactive) | 25.8 µM (inactive) | > 100 µM (inactive) | > 100 µM (inactive) | 28.2 µM (inactive) | 36.5 µM (inactive) | 19.1 µM (inactive) | > 100 µM (inactive) | 25.3 µM (inactive) | 18 µM (inactive) | 23.9 µM (inactive) | > 100 µM (inactive) | > 100 µM (inactive) | 53.7 µM (inactive) | 49.2 µM (inactive) | 22.6 µM (inactive) | 32.8 µM (inactive) | > 100 µM (inactive) |
| OC(c1ccc(-c2ccccc2)cc1)C(F)(F)c1nc2ccccc2o1 (stereo not given) | 34.8 µM (inactive) | 65.9 µM (inactive) | 30.7 µM (inactive) | 27.8 µM (inactive) | 15.5 µM (inactive) | > 100 µM (inactive) | 54.5 µM (inactive) | 18.6 µM (inactive) | 31.2 µM (inactive) | 28.5 µM (inactive) | 20.9 µM (inactive) | 38.3 µM (inactive) | 37.2 µM (inactive) | > 100 µM (inactive) | 51.3 µM (inactive) | > 100 µM (inactive) | 55 µM (inactive) | > 48.3 µM (inactive) | 25.3 µM (inactive) | 18.2 µM (inactive) |
| CN(/N=C/c1ccc(Cl)cc1)C1=NCCCCN1 | > 100 µM (inactive) | 32.9 µM (inactive) | > 100 µM (inactive) | 68.7 µM (inactive) | 30.3 µM (inactive) | > 100 µM (inactive) | > 100 µM (inactive) | > 100 µM (inactive) | > 100 µM (inactive) | 26.7 µM (inactive) | > 100 µM (inactive) | > 100 µM (inactive) | > 100 µM (inactive) | > 100 µM (inactive) | > 100 µM (inactive) | > 10 µM (inactive) | > 100 µM (inactive) | > 100 µM (inactive) | > 100 µM (inactive) | 18.9 µM (inactive) |
| C=C1CC(Cn2ccc(=O)[nH]c2=O)(c2ccc(-c3ccccc3)cc2)OC1=O (stereo not given) | 2.62 µM (inactive) | 3.2 µM (inactive) | 15.2 µM (inactive) | 13.6 µM (inactive) | 0.154 µM (active) | 0.257 µM (active) | 16.1 µM (inactive) | 2.1 µM (inactive) | 2.4 µM (inactive) | 1.5 µM (inactive) | 3.7 µM (inactive) | 1.03 µM (active) | 8.09 µM (inactive) | 1.03 µM (active) | 0.234 µM (active) | 2.09 µM (inactive) | 6.64 µM (inactive) | 4.6 µM (inactive) | 0.916 µM (active) | 0.208 µM (active) |
| COC(=O)C1(NC(=O)C(N)CC(=O)O)C(C)C1C (stereo not given) | > 100 µM (inactive) | > 100 µM (inactive) | > 100 µM (inactive) | > 100 µM (inactive) | > 100 µM (inactive) | > 100 µM (inactive) | > 100 µM (inactive) | > 100 µM (inactive) | > 100 µM (inactive) | > 100 µM (inactive) | > 100 µM (inactive) | > 100 µM (inactive) | > 100 µM (inactive) | > 100 µM (inactive) | > 100 µM (inactive) | > 100 µM (inactive) | > 100 µM (inactive) | > 100 µM (inactive) | > 100 µM (inactive) | > 100 µM (inactive) |
| CCCCCCCCCCCCCCCCCCN(C)CC(COP(=O)([O-])OCC[N+](C)(C)C)OC (stereo not given) | 26.6 µM (inactive) | 18.1 µM (inactive) | 9.38 µM (inactive) | 5.93 µM (inactive) | 3.66 µM (inactive) | 17.5 µM (inactive) | 8.17 µM (inactive) | 8.09 µM (inactive) | 16.7 µM (inactive) | 3.94 µM (inactive) | > 46.1 µM (inactive) | 3.32 µM (inactive) | 14.1 µM (inactive) | > 100 µM (inactive) | 6.03 µM (inactive) | 38.5 µM (inactive) | 29.5 µM (inactive) | 16.5 µM (inactive) | 29.4 µM (inactive) | 18.8 µM (inactive) |
| CC(=O)c1ccccc1NCC(=O)Nn1cnc2ccc(S(=O)(=O)Nc3ccccc3C(C)=O)cc2c1=O | > 100 µM (inactive) | > 100 µM (inactive) | > 100 µM (inactive) | > 100 µM (inactive) | > 100 µM (inactive) | > 100 µM (inactive) | > 100 µM (inactive) | > 100 µM (inactive) | > 100 µM (inactive) | > 100 µM (inactive) | 33.7 µM (inactive) | > 100 µM (inactive) | > 100 µM (inactive) | > 100 µM (inactive) | > 100 µM (inactive) | > 100 µM (inactive) | > 100 µM (inactive) | > 100 µM (inactive) | > 100 µM (inactive) | > 100 µM (inactive) |

From ChEMBL document CHEMBL1201862, “PubChem BioAssay data set” (2004)
